Laboratory results published in ChEMBL document CHEMBL4602699, “Identification and Optimization of EphA2-Selective Bicycles for the Delivery of Cytotoxic Payloads” (J Med Chem, 2020).

Tests used:
in vitro [1] = conditions: human, plasma
HT-1080 = assay: animal or person; conditions: Rattus norvegicus, HT-1080, iv, 336 h, read-out: MED
[2] = human, plasma, 2 h, 2 µM
in vitro [3] = conditions: mouse, plasma
in vitro [4] = conditions: human, plasma; remark: listed apart in the source

Row | fraction unbound at 2 h, 2 µM (in vitro [1]) | Fu [2] | half-life at 2 µM (in vitro [3]) [min] | half-life at 2 µM (in vitro [4]) [min] | Compound | minimal effective dose (HT-1080) [mg/kg]
1 | 0.44 | – | – | – | COc1cc2cc(c1Cl)N(C)C(=O)C[C@@H](OC(=O)[C@@H](C)N(C)C(=O)CCSSCCCC(=O)NCCC(=O)N(C)C(=O)CN(C)C(=O)CN(C)C(=O)CN(C)C(=O)CN(C)C(=O)CN(C)C(=O)CN(C)CC(=O)N(C)CC(=O)N(C)CC(=O)N(C)CC(=O)N[C@@H](C)C(=O)N[C@@H](CCCNC(=N)N)C(=O)N[C@@H](CC(=O)O)C(=O)N[C@H]1CSCCC(=O)N3CN4CN(C3)C(=O)CCSC[C@H](NC(=O)[C@H](CC(C)C)NC(=O)[C@@H]3CCCN3C(=O)[C@H](CC(N)=O)NC(=O)[C@H](C(C)C)NC(=O)[C@H](CC(C)C)NC(=O)[C@@H]3CCCN3C1=O)C(=O)N[C@@H](CC(C)C)C(=O)N[C@@H](Cc1c[nH]cn1)C(=O)N1CCC[C@H]1C(=O)N[C@H](CC(=O)O)C(=O)N[C@@H](CC1CCc3ccccc31)C(=O)NC(CCCCNC(=N)N)C(=O)N[C@H](C(N)=O)CSCCC4=O)[C@@]1(C)O[C@@H]1[C@@H](C)[C@H]1C[C@](O)(NC(=O)O1)[C@@H](OC)/C=C/C=C(\C)C2 (some centres undefined) | 3
2 | – | Bld | – | – | CC(C)[C@H](NC(=O)[C@@H](CC(=O)O)NC(=O)[C@H](Cc1c[nH]cn1)NC(=O)CN(C)C(=O)CN(C)C(=O)CN(C)C(=O)CN(C)CC(=O)N(C)CC(=O)N(C)CC(=O)N(C)CC(=O)N(C)CC(=O)N(C)CC(=O)N(C)C(=O)CCN)C(=O)N1CCC[C@H]1C(=O)N[C@@H]1CSCc2cc3cc(c2)CSC[C@H](C(N)=O)NC(=O)[C@@H](CC(=O)O)NC(=O)[C@@H]2CCCN2C(=O)[C@H](CCCCNC(=N)N)NC(=O)[C@H](CC(N)=O)NC(=O)[C@H](C(C)(C)C)NC(=O)[C@@H]2CCCN2C(=O)[C@H](CSC3)NC(=O)[C@H](Cc2cccc3ccccc23)NC(=O)[C@H](Cc2ccccc2)NC(=O)C(C)(C)NC(=O)CNC(=O)[C@H](Cc2cccc3ccccc23)NC(=O)C(C)(C)NC1=O | –
3 | 0.646 | – | 216 | 222 | CC(=O)N[C@@H](C)C(=O)N[C@@H](CCCNC(=N)N)C(=O)N[C@@H](CC(=O)O)C(=O)N[C@@H](CS)C(=O)N1CCC[C@H]1C(=O)N[C@@H](CC(C)C)C(=O)N[C@H](C(=O)N[C@@H](CC(N)=O)C(=O)N1CCC[C@H]1C(=O)N[C@@H](CC(C)C)C(=O)N[C@@H](CS)C(=O)N[C@@H](CC(C)C)C(=O)N[C@@H](Cc1cnc[nH]1)C(=O)N1CCC[C@H]1C(=O)NCC(=O)N[C@@H](Cc1c[nH]c2ccccc12)C(=O)N[C@H](C(=O)N[C@@H](CS)C(=O)O)[C@@H](C)O)C(C)C | –
4 | 0.41 | – | 1980 | > 3300 | CC(C)C[C@@H]1NC(=O)[C@@H]2CSCCC(=O)N3CN(CN(C3)C(=O)CCSC[C@H](NC(=O)[C@H](CC(=O)O)NC(=O)[C@H](CCCNC(=N)N)NC(=O)[C@H](C)NC(=O)CN(C)C(=O)CN(C)C(=O)CN(C)C(=O)CN(C)CC(=O)N(C)CC(=O)N(C)CC(=O)N(C)CC(=O)N(C)CC(=O)N(C)CC(=O)N(C)C(=O)CCN)C(=O)N3CCC[C@H]3C(=O)N[C@@H](CC(C)C)C(=O)N[C@@H](C(C)C)C(=O)N[C@@H](CC(N)=O)C(=O)N3CCC[C@H]3C(=O)N[C@@H](CC(C)C)C(=O)N2)C(=O)CCSC[C@@H](C(N)=O)NC(=O)C(CCCCNC(=N)N)NC(=O)[C@H](CC2CCc3ccccc32)NC(=O)[C@@H](CC(=O)O)NC(=O)[C@@H]2CCCN2C(=O)[C@H](Cc2c[nH]cn2)NC1=O (some centres undefined) | –
